Data on 37 compounds can be found in patent US9079852B2, “NMDA receptor antagonists for neuroprotection” (Emory University, priority 2007, dated 2015).

Molecules are shown by their SMILES. Bounds are passed on as bounds.

In data set [1] the target is rat alpha-1 adrenergic receptor. The data set is described as follows: alpha-1 adrenergic receptor binding by displacement of 3[H]-prazosin in rat brain membranes. Particulars: 3[H]-prazosin displacement, read-out: α1 IC50. The method, then: Binding to the rat alpha-1 adrenergic receptor in rat brain membranes was determined by displacement of ^3[H]-prazosin (P. Greengrass and R. Bremner; Binding characteristics of 3H-prazosin to rat brain a-adrenergic receptors. Eur. J. Pharmacol. 1979, 55: 323-326). Compounds were incubated at 0.3 or 3 μM final concentration, in duplicate, and the amount of displaced ^3[H]-prazosin determined by liquid scintillation spectroscopy.
Binding IC50 values were determined from displacement curves (four-six concentrations, each concentration in duplicate) fit by a non-linear, least squares, regression analysis using MathIQ (ID Business Solutions Ltd., UK). The binding Ki's were determined from the IC50 according to the method of Cheng and Prusoff (Y. Cheng and W. H. Prusoff; Relationship between the inhibition constant (K1) and the concentration of inhibitor which causes 50 percent inhibition (IC50) of an enzymatic reaction. Biochem. Pharmacol. 1973, 22: 3099-3108).

Data set [2] in a line: Plasma half-life / plasma pharmacokinetics (Table G). It counts as in vivo. The following applies: rat. Here is the method:
(§1) Animals were fasted overnight prior to dose administration and food returned to the animals two hours after dosing. Following IV dosing, blood samples (ca 200 μL) were collected into separate tubes containing anticoagulant (K-EDTA) via the orbital plexus at various times post administration. Plasma samples were prepared immediately after collection by centrifugation for ten minutes using a tabletop centrifuge, and stored at −80° C. Brain tissue was weighed, homogenized on ice in 50 mM phosphate buffer (2 ml per brain) and the homogenate stored at −80° C. Plasma and brain homogenate samples were extracted by the addition of 5 volumes of cold acetonitrile, mixed well by vortexing and centrifuged at 4000 rpm for 15 minutes. The supernatant fractions were analyzed by LC-MS/MS operating in multiple reaction monitoring mode (MRM). The amount of parent compound in each sample was calculated by comparing the response of the analyte in the sample to that of a standard curve.

The nature of data set [3]: Brain exposure / brain penetration (Table H). Format: in vivo, rat. The following applies: for BBB Pene Classification: classes High/Moderate/Low, key not given. The method, then:
as §1, with “Rats (n=3 per dose) were administered compounds at a doses of 1-4 mg/kg in a single bolus i.v. infusion (2 ml/kg body weight) via the tail vein formulated in 2% dimethyl acetamide/98% 2-hydroxy-propyl cyclodextrin (5%). Animals” for “Animals”

Data set [4] is described as follows: Oral absorption (Table I). It counts as in vivo. The following applies: rat, plasma, read-out: p.o. t½ hr (converted).
Where [5] appears, read: iv, 3 mg/kg, 3 MPK i.v., read-out: PK-i.v. t½ (converted).
Where [6] appears, read: iv, 1 mg/kg, 1 MPK i.v., read-out: PK-i.v. t½ (converted).

For the compound `CS(=O)(=O)Nc1ccc(OC[C@@H](O)CN2CCN(c3ccc(Cl)cc3)CC2)cc1`, the IC50 (usually the concentration at which inhibition is half-maximal) in data set [1] was found to be 350 nM. Same read-out and setting: in the case of `O[C@H](COc1ccc2[nH]ncc2c1)CN1CCN(c2ccc(Cl)cc2)CC1` it was about 300 nM.

With `O=c1ccc2cc(OC[C@@H](O)CN3CCN(c4ccc(Cl)cc4)CC3)ccc2[nH]1`, in data set [1], the IC50 is about 350 nM. As for `O=c1[nH]c2ccc(OC[C@@H](O)CN3CCN(c4ccc(Cl)cc4)CC3)cc2[nH]1`, the 50% inhibitory concentration (IC50) in data set [1] is about 350 nM. As for `O=C1Cc2cc(OC[C@@H](O)CN3CCN(c4ccc(Cl)cc4)CC3)ccc2N1`, the 50% inhibitory concentration (IC50) in data set [1] is about 100 nM. The same measure, in the same setting: for `O[C@H](COc1ccc2[nH]c(=S)[nH]c2c1)CN1CCN(c2ccc(Cl)cc2)CC1` the value was about 150 nM. On the same count and under the same terms, in the case of `O=C1CCc2cc(OC[C@@H](O)CN3CCN(c4ccc(Cl)cc4)CC3)ccc2N1` it was about 100 nM. For `CS(=O)(=O)Nc1ccc(OC[C@@H](O)CN2CCN(c3ccc(Cl)c(Cl)c3)CC2)cc1`, the half-life in data set [2] (setting [5]) was 2.6 h. Turning to `O=C(COc1ccc2[nH]c(=O)[nH]c2c1)N1CCN(c2ccc(Cl)c(Cl)c2)CC1`, in data set [2] (setting [6]), the half-life was 1.84 h. Regarding `Oc1ccc(OC[C@@H](O)CN2CCN(c3ccc(Cl)cc3)CC2)cc1` [drawing 743], the IC50 in data set [1] is 720 nM. On to `O=c1[nH]c2ccc(OC[C@@H](O)CN3CCN(c4ccc(Cl)cc4)CC3)cc2o1` [drawing 744], for which, in data set [1], the concentration for half-maximal inhibition (IC50) came out at 620 nM.

`NC(=O)Nc1ccc(OC[C@@H](O)CN2CCN(c3ccc(Cl)cc3)CC2)cc1` [drawing 746]: in data set [1], the IC50 came out at 340 nM. With `NC(=O)Nc1ccc(OC[C@@H](O)CN2CCN(c3ccc(Cl)cc3)CC2)cc1` [drawing 754], in data set [2] (setting [6]), the half-life was 2.7 h. `O=c1[nH]c2ccc(OC[C@@H](O)CN3CCN(c4ccc(F)c(F)c4)CC3)cc2[nH]1` [drawing 755]: the half-life in data set [2] (setting [6]) was 2.4 h. `CS(=O)(=O)Nc1ccc(OC[C@@H](O)CN2CCN(c3ccc(F)c(F)c3)CC2)cc1` [drawing 757]: the half-life in data set [2] (ip, 60 mg/kg, 60 MPK i.p., read-out: PK t½ (hr) i.p.) was over 2 h. Take `Cc1ccc(N2CCN(C[C@H](O)COc3ccc4c(c3)CCC(=O)N4)CC2)cc1` [drawing 758]: in data set [2] (setting [6]), the half-life was 0.8 h. The same measure, in the same setting: for `Oc1ccc(OC[C@@H](O)CN2CCN(c3ccc(Cl)cc3)CC2)cc1` [drawing 759] the value was 0.6 h; for `O=c1[nH]c2ccc(OC[C@@H](O)CN3CCN(c4ccc(Cl)cc4)CC3)cc2o1` [drawing 760], 0.6 h. As for `Cc1ccc(N2CCN(C[C@H](O)COc3ccc4[nH]c(=O)oc4c3)CC2)cc1` [drawing 761], the half-life in data set [2] (setting [6]) is 0.6 h. With `NC(=O)Nc1ccc(OC[C@@H](O)CN2CCN(c3ccc(Cl)cc3)C2=O)cc1` [drawing 762], the half-life in data set [2] (setting [6]) was 1.14 h. Turning to `O=C1N(C[C@H](O)COc2ccc(O)cc2)CCN1c1ccc(Cl)cc1` [drawing 763], the half-life in data set [2] (setting [5]) was at most 0.8 h. On to `O=C(COc1ccc2[nH]c(=O)oc2c1)N1CCN(c2ccc(Cl)c(Cl)c2)CC1` [drawing 765], for which the half-life in data set [2] (ip, 10 mg/kg, 10 MPK i.p., read-out: PK t½ (hr) i.p.) is about 0.83 h. For the compound `O=c1[nH]c2ccc(OC[C@@H](O)CSc3nc4cc(Cl)c(Cl)cc4[nH]3)cc2o1` [drawing 766], the half-life in data set [2] (setting [5]) is at most 0.8 h. On to `Oc1ccc(OC[C@@H](O)CSc2nc3cc(Cl)c(Cl)cc3[nH]2)cc1` [drawing 767], for which the half-life in data set [2] (setting [5]) is about 0.5 h. With `Oc1ccc(OC[C@@H](O)CN2CCN(c3ccc(Cl)cc3)CC2)cc1` [drawing 768], the “BBB Pene Classification” value in data set [3] is on record as “High”.

Consider `Cc1ccc(N2CCN(C[C@H](O)COc3ccc4[nH]c(=O)oc4c3)CC2)cc1` [drawing 769], for which, in data set [3], the “BBB Pene Classification” value was “Moderate”.

`CS(=O)(=O)Nc1ccc(OC[C@@H](O)CN2CCN(c3ccc(F)c(F)c3)CC2)cc1` [drawing 770]: in data set [3], the “BBB Pene Classification” value is “Moderate”. Same read-out and setting: in the case of `NC(=O)Nc1ccc(OC[C@@H](O)CN2CCN(c3ccc(Cl)cc3)CC2)cc1` [drawing 771] it was “Low”; in that of `O=C1N(C[C@H](O)COc2ccc(O)cc2)CCN1c1ccc(Cl)cc1` [drawing 772], “High”. Consider `NC(=O)Nc1ccc(OC[C@@H](O)CN2CCN(c3ccc(Cl)cc3)C2=O)cc1` [drawing 773], for which the “RATIO: Brain:plasma (Direct)” value in data set [3] (1 MPK i.v., no time point printed) is “Below Detection limit (~0)”. Further, the “BBB Pene Classification” value in data set [3] is given as “Low”. With `O=C(COc1ccc2[nH]c(=O)oc2c1)N1CCN(c2ccc(Cl)c(Cl)c2)CC1` [drawing 774], the “BBB Pene Classification” value in data set [3] is listed as “Moderate”. On to `O=C(COc1ccc2[nH]c(=O)oc2c1)N1CCN(c2ccc(Cl)c(Cl)c2)CC1` [drawing 775], for which the Kp at 15 min in data set [3] (rat, brain/plasma, iv, 1 mg/kg, 1 MPK i.v., 15 m, read-out: RATIO: Brain:plasma (Direct), 15 m) was 0.04. The Kp at 30 min in data set [3] (rat, brain/plasma, iv, 1 mg/kg, 1 MPK i.v., 30 m, read-out: RATIO: Brain:plasma (Direct), 30 m) came out at 0.06. Also, the Kp at 1 h in data set [3] (rat, brain/plasma, iv, 1 mg/kg, 1 MPK i.v., 1 hr, read-out: RATIO: Brain:plasma (Direct), 1 hr) was 0.07. Also, the Kp at 3 h in data set [3] (rat, brain/plasma, iv, 1 mg/kg, 1 MPK i.v., 3 hr, read-out: RATIO: Brain:plasma (Direct), 3 hr) came to 0.1. In addition, in data set [3] (rat, brain/plasma, iv, 1 mg/kg, 1 MPK i.v., avg, read-out: RATIO: Brain:plasma (Direct), avg), the Kp stood at 0.07. `Oc1ccc(OC[C@@H](O)CSc2nc3cc(Cl)c(Cl)cc3[nH]2)cc1` [drawing 776]: the “RATIO: Brain:plasma (Direct), 2 hr” value in data set [3] (3 MPK i.v., 2 hr) is “BLQ”. Moreover, the “BBB Pene Classification” value in data set [3] was “High”. For the compound `O=c1[nH]c2ccc(OC[C@@H](O)CSc3nc4cc(Cl)c(Cl)cc4[nH]3)cc2o1` [drawing 777], the “RATIO: Brain:plasma (Direct), 30 m” value in data set [3] (3 MPK i.v., 30 m) was “BLQ (avg); BLQ (30 m), BLQ (1 hr),”. Moreover, the “RATIO: Brain:plasma (Direct), 1 hr” value in data set [3] (3 MPK i.v., 1 hr) was “BLQ (avg); BLQ (30 m), BLQ (1 hr),”. In addition, the “RATIO: Brain:plasma (Direct), avg” value in data set [3] (3 MPK i.v., avg) is “BLQ (avg); BLQ (30 m), BLQ (1 hr),”. For the same compound, in data set [3], the “BBB Pene Classification” value was “Moderate”.

Consider `NC(=O)Nc1ccc(OC[C@@H](O)CN2CCN(c3ccc(Cl)cc3)CC2)cc1` [drawing 778], for which the half-life in data set [4] (10 mg/kg, 10 MPK, 0-8 hr p.o.) was 388 min. Take `O=c1[nH]c2ccc(OC[C@@H](O)CN3CCN(c4ccc(F)c(F)c4)CC3)cc2[nH]1` [drawing 779]: the half-life in data set [4] (5 mg/kg, 5 MPK, 0-6 hr p.o.) was 182 min. The same measure, in the same setting: in the case of `Cc1ccc(N2CCN(C[C@H](O)COc3ccc4c(c3)CCC(=O)N4)CC2)cc1` [drawing 780] it was 51 min.
